The record followed here is US20240246950A1, “Anilino-Pyrazole Derivatives, Compositions and Methods Thereof” (Ensem Therapeutics, priority 2022, published 2024).

Experiment [1] deals with CDK1/cyclinB (Homo sapiens, UniProt P06493). The experiment can be described thus: In vitro kinase TR-FRET assay CDK1/cyclinB. The note with it: enzyme 0.3 nM, ATP 56 μM. It counts as biochemical. How it is done: (§1) In vitro kinase TR-FRET assays: CDK2/CycA2, CDK2/CycE1, CDK1/cyclinB and GSK3β
(§2) The test compounds were prepared as 10 mM stock solution in 100% DMSO. The stock solution was then serially diluted 3-fold in 100% DMSO to 10 concentrations. 200 nL of each diluted compound solution was transferred to 384-well plate in duplicate. To each well, 5 uL of enzyme and ATP mixture solution containing enzyme CDK2/CycA2, CDK2/CycE1, CDK1/cyclinB, or GSK30 (final concentrations 3 nM, 0.6 nM, 0.3 nM, 0.6 nM, respectively) and ATP (final concentrations 27 μM, 82 μM, 56 μM, 7.6 μM, respectively) in the assay buffer (50 mM HEPES, pH7.5, 10 mM MgCl2, 1 mM DTT, 0.01% BSA, 0.01% Triton X-100). For negative control, 5 uL of assay buffer was added instead. The plate was incubated at room temperature for 10 min. 5 uL of peptide solution containing ULight-4E-BP1 peptide (final concentrations 50 nM) in the assay buffer was subsequently added into each well to initiate the reaction. By incubation at room temperature for 1 hour, 10 uL of 2 nM Eu-anti-phospho-4E BP1 antibody was then added for detection. After one hour incubation at room temperature, all samples were subjected to read the TR-FRET signal on Envision with excitation at 340 nm and emission fluorescence at 615 nm and 665 nm. IC50 values were then calculated by plotting dose-response curves and then using the XLfit application in Excel software.
In general terms: In TR-FRET formats the signal depends on donor and acceptor labels being close together.

The target of experiment [2] is CDK2/CycA2 (Homo sapiens, UniProt P24941). The experiment can be described thus: In vitro kinase TR-FRET assay CDK2/CycA2. It counts as biochemical. To be noted: enzyme 3 nM, ATP 27 μM, read-out: CDK2 cyclinA2 activity assay: IC50. How it is done:
as §1, §2

Experiment [3] has as its system TOV21G. The experiment can be described thus: Cell proliferation (CyQUANT) TOV21G. The experiment is classed as cell-based. The note with it: 7 days, read-out: Anti-proliferation assay: IC50 (nM) [Cell Line: TOV21G]. How it is done: (§3) Cancer cell lines, namely, OVCAR3, TOV21G were seeded onto 96 well cell culture plates at a density of 2500, 1000 or 3000 cells/well, respectively and cultured overnight. Cells treated with test compounds at 3-fold dose titration for 7 days at maximum final DMSO concentration of 0.01%. The CyQUANT® Cell Proliferation Assay, a highly sensitive fluorescence-based method for quantifying cells and assessing cell proliferation and cytotoxicity was employed, following manufacturer's procedure (ThermnoFisher, Cataloge #C35012). Plates were scanned with a laser-based Acumen Cellistra instrument by TTP LabTech at Ex/Em 480/520 nm. % Inhibition is calculated based on DMSO control wells on the same plate (ie, DMSO wells have 100% growth and 0% growth inhibition).

Experiment [4] addresses CDK2/CycE1 (Homo sapiens, UniProt P24941). Description: In vitro kinase TR-FRET assay CDK2/CycE1. It counts as biochemical. The note with it: enzyme 0.6 nM, ATP 82 μM, read-out: CDK2 cyclinE1 activity assay: IC50. The procedure: as §1, §2
Experiment [5] deals with GSK3β (Homo sapiens, UniProt P49841). The experiment can be described thus: In vitro kinase TR-FRET assay GSK3β. It counts as biochemical. The note with it: enzyme 0.6 nM, ATP 7.6 μM. How it is done:
as §1, §2

Experiment [6] deals with OVCAR3. Description: Cell proliferation (CyQUANT) OVCAR3. The experiment is classed as cell-based. The note with it: OVCAR3, 7 days, read-out: Anti-proliferation assay: IC50 (nM) [Cell Line: OVCAR3]. How it is done:
as §3

Like-named read-outs stand apart in the source and are kept apart here. Some results are limits rather than exact numbers.

GSK3β, sequence (P49841 whole entry, species assumed): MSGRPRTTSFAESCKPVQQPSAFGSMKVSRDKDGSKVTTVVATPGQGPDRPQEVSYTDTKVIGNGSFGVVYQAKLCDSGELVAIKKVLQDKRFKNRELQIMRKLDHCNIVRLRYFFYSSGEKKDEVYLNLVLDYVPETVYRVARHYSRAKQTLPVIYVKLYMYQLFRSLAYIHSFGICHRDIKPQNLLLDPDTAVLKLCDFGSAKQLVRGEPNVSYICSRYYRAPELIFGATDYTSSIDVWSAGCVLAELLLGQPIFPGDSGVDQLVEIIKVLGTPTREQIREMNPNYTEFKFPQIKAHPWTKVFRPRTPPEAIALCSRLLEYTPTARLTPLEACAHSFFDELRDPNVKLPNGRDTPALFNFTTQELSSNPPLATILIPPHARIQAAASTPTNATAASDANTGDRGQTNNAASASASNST
CDK1/cyclinB, sequence (P06493 whole entry): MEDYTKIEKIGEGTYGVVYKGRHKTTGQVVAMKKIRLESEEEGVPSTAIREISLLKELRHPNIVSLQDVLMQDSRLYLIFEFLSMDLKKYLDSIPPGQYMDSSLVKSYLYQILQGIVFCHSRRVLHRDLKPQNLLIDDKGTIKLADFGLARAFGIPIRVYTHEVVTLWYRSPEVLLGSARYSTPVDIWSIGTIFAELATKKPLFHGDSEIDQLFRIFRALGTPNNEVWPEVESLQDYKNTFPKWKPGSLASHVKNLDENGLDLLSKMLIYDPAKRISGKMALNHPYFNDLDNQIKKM
CDK1/cyclinB, sequence (P14635 whole entry partner): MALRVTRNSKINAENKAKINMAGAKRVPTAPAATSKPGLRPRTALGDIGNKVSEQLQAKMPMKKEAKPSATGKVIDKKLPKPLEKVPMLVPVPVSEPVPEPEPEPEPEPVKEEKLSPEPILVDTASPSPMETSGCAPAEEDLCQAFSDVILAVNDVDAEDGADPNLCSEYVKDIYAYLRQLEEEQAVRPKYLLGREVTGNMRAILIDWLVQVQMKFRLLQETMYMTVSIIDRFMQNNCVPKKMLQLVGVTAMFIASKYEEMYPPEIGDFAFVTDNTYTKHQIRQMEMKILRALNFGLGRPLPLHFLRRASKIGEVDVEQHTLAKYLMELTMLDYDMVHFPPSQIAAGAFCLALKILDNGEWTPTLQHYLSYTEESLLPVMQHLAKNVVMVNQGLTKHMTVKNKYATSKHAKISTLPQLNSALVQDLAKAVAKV

On to `CC(C)NC(=O)O[C@@H]1CC[C@H](c2cc(Nc3cccc4c3CS(=O)(=O)CC4)n[nH]2)C1` [Example 63, (1R,3S)-3-(3-((2,2-dioxidoisothiochroman-8-yl)amino)-1H-pyrazol-5-yl)cyclopentyl isopropylcarbamate], for which the IC50 was 50 to 500 nM in experiment [1]; less than 50 nM in experiment [2]; no less than 1000 nM in experiment [3] (Homo sapiens, 168 h); less than 50 nM in experiment [4]; greater than 1000 nM in experiment [5]; no more than 500 nM in experiment [6] (Homo sapiens, OVCAR-3, 168 h).
Regarding `CC(C)NC(=O)O[C@H]1CC[C@@H](c2cc(Nc3ccc4c(c3)CCNS4(=O)=O)n[nH]2)CC1` [Example 11, (1s,4s)-4-{3-[(1,1-dioxo-3,4-dihydro-2H-1λ^6,2-benzothiazin-6-yl)amino]-1H-pyrazol-5-yl}cyclohexyl N-(propan-2-yl)carbamate], the IC50 in experiment [1] is less than 50 nM; in experiment [2] it was less than 50 nM; in experiment [3] (Homo sapiens, 168 h) it was no less than 1000 nM; in experiment [4], less than 50 nM; in experiment [5], greater than 1000 nM; in experiment [6] (Homo sapiens, OVCAR-3, 168 h), no more than 500 nM.
For `CC(C)NC(=O)O[C@@H]1CC[C@H](c2cc(Nc3cccc4c3CS(=O)(=O)CC4O)[nH]n2)C1` (stereo partly drawn) [Example 62, (1R,3S)-3-(5-((4-hydroxy-2,2-dioxidoisothiochroman-8-yl)amino)-1H-pyrazol-3-yl)cyclopentyl isopropylcarbamate], the IC50 is 50 to 500 nM in experiment [1]; less than 50 nM in experiment [2]; no less than 1000 nM in experiment [3] (Homo sapiens, 168 h); less than 50 nM in experiment [4]; greater than 1000 nM in experiment [5]; no more than 500 nM in experiment [6] (Homo sapiens, OVCAR-3, 168 h).
For `CC(C)NC(=O)O[C@@H]1CC[C@H](c2cc(Nc3ccc4c(c3)C(C)(C)CS4(=O)=O)n[nH]2)C1` [Example 21, (1R,3S)-3-{5-[(3,3-dimethyl-1,1-dioxo-2,3-dihydro-1λ^6-benzothiophen-5-yl)amino]-2H-pyrazol-3-yl}cyclopentyl (prop-2-ylamino)methanoate], the IC50 in experiment [1] was 50 to 500 nM; in experiment [2] it was less than 50 nM; in experiment [3] (Homo sapiens, 168 h), no less than 1000 nM; in experiment [4], less than 50 nM; in experiment [5], 50 to 500 nM; in experiment [6] (Homo sapiens, OVCAR-3, 168 h) it was 500 to 1000 nM.
For “(1s,4s)-4-{5-[(1,1-dioxo-2,3-dihydro-1λ^6-benzothiophen-5-yl)amino]-2H-pyrazol-3-yl}cyclohexyl (prop-2-ylamino)methanoate [Example 16]”, the IC50 in experiment [1] was 50 to 500 nM; in experiment [2], less than 50 nM; in experiment [3] it was no less than 1000 nM; in experiment [4], less than 50 nM; in experiment [5] it was 500 to 1000 nM; in experiment [6], no more than 500 nM.
With `CC(C)NC(=O)O[C@H]1CC[C@@H](c2cc(Nc3nccc4c3CCS4(=O)=O)n[nH]2)CC1` [Example 69, (1s,4s)-4-{5-[(1,1-dioxo-2,3-dihydro-1λ^6-thieno[3,2-c]pyridin-4-yl)amino]-1H-pyrazol-3-yl}cyclohexyl (prop-2-ylamino)methanoate], the IC50 in experiment [1] was 50 to 500 nM; in experiment [2], less than 50 nM; in experiment [3] (Homo sapiens, 168 h), no less than 1000 nM; in experiment [4], less than 50 nM; in experiment [5], greater than 1000 nM; in experiment [6] (Homo sapiens, OVCAR-3, 168 h) it was 500 to 1000 nM.
`CC(C)NC(=O)O[C@@H]1CC[C@H](c2cc(Nc3ccc4c(c3)C(C)NS4(=O)=O)[nH]n2)C1` (stereo partly drawn) [Example 10, (1R,3S)-3-(5-((3-methyl-1,1-dioxido-2,3-dihydrobenzo[d]isothiazol-5-yl)amino)-1H-pyrazol-3-yl)cyclopentyl isopropylcarbamate]: the IC50 in experiment [1] was less than 50 nM; in experiment [2], less than 50 nM; in experiment [3] (Homo sapiens, 168 h) it was no less than 1000 nM; in experiment [4] it was less than 50 nM; in experiment [5], 50 to 500 nM; in experiment [6] (Homo sapiens, OVCAR-3, 168 h) it was no more than 500 nM.
On to `CC(C)NC(=O)O[C@@H]1CC[C@H](c2cc(Nc3ccc4c(c3)OCCNS4(=O)=O)n[nH]2)C1` [Example 6, (1R,3S)-3-(3-((1,1-dioxido-3,4-dihydro-2H-benzo[b][1,4,5]oxathiazepin-7-yl)amino)-1H-pyrazol-5-yl)cyclopentyl isopropylcarbamate], for which the IC50 in experiment [1] is 50 to 500 nM; in experiment [2], less than 50 nM; in experiment [3] (Homo sapiens, 168 h), no less than 1000 nM; in experiment [4] it was less than 50 nM; in experiment [5], 50 to 500 nM; in experiment [6] (Homo sapiens, OVCAR-3, 168 h), no more than 500 nM.
For the compound `CC(C)NC(=O)O[C@@H]1CC[C@H](c2cc(Nc3ccc4c(c3)S(=O)(=O)NC4)n[nH]2)C1` [Example 17, (1R,3S)-3-(3-((1,1-dioxido-2,3-dihydrobenzo[d]isothiazol-6-yl)amino)-1H-pyrazol-5-yl)cyclopentyl isopropylcarbamate], the IC50 in experiment [1] is less than 50 nM; in experiment [2], less than 50 nM; in experiment [3] (Homo sapiens, 168 h), no more than 500 nM; in experiment [4] it was less than 50 nM; in experiment [5] it was 50 to 500 nM; in experiment [6] (Homo sapiens, OVCAR-3, 168 h) it was no more than 500 nM.
As to `CC(C)NC(=O)O[C@@H]1CC[C@H](c2cc(Nc3ccc4c(c3)C(=O)NC4=O)n[nH]2)C1` [Example 4, (1R,3S)-3-(3-((1,3-dioxoisoindolin-5-yl)amino)-1H-pyrazol-5-yl)cyclopentyl isopropylcarbamate], the IC50 in experiment [1] is 50 to 500 nM; in experiment [2] it was less than 50 nM; in experiment [3] (Homo sapiens, 168 h), no less than 1000 nM; in experiment [4] it was less than 50 nM; in experiment [5] it was 50 to 500 nM; in experiment [6] (Homo sapiens, OVCAR-3, 168 h), 500 to 1000 nM.
On to `CC(C)NC(=O)O[C@@H]1CC[C@H](c2cc(Nc3ccc4c(c3)CCS4(=O)=O)n[nH]2)C1` [Example 9, (1R,3S)-3-(3-((1,1-dioxido-2,3-dihydrobenzo[b]thiophen-5-yl)amino)-1H-pyrazol-5-yl)cyclopentyl isopropylcarbamate], for which the IC50 is 50 to 500 nM in experiment [1]; less than 50 nM in experiment [2]; no less than 1000 nM in experiment [3] (Homo sapiens, 168 h); less than 50 nM in experiment [4]; 50 to 500 nM in experiment [5]; no more than 500 nM in experiment [6] (Homo sapiens, OVCAR-3, 168 h).
Turning to `CC(C)NC(=O)O[C@@H]1CC[C@H](c2cc(Nc3ccc4c(c3F)CCS4(=O)=O)n[nH]2)C1` [Example 60, (1R,3S)-3-(3-((4-fluoro-1,1-dioxido-2,3-dihydrobenzo[b]thiophen-5-yl)amino)-1H-pyrazol-5-yl)cyclopentyl isopropylcarbamate], the IC50 in experiment [1] was 50 to 500 nM; in experiment [2], less than 50 nM; in experiment [3] (Homo sapiens, 168 h), no less than 1000 nM; in experiment [4], less than 50 nM; in experiment [5], greater than 1000 nM; in experiment [6] (Homo sapiens, OVCAR-3, 168 h), no more than 500 nM.
In the case of `CC(C)NC(=O)O[C@@H]1CC[C@H](c2cc(Nc3cccc4c3CCCS4(=O)=O)n[nH]2)C1` [Example 59, (1R,3S)-3-(3-((1,1-dioxidothiochroman-5-yl)amino)-1H-pyrazol-5-yl)cyclopentyl isopropylcarbamate], the IC50 was 50 to 500 nM in experiment [1]; less than 50 nM in experiment [2]; 500 to 1000 nM in experiment [3] (Homo sapiens, 168 h); less than 50 nM in experiment [4]; 500 to 1000 nM in experiment [5]; no more than 500 nM in experiment [6] (Homo sapiens, OVCAR-3, 168 h).
Take `CC(C)NC(=O)O[C@@H]1CC[C@H](c2cc(Nc3ccc4c(c3)N(C)CNS4(=O)=O)n[nH]2)C1` [Example 12, (1R,3S)-3-{3-[(4-methyl-1,1-dioxo-3,4-dihydro-2H-1λ^6,2,4-benzothiadiazin-6-yl)amino]-1H-pyrazol-5-yl}cyclopentyl N-(propan-2-yl)carbamate]: the IC50 in experiment [1] is less than 50 nM; in experiment [2] it was less than 50 nM; in experiment [3] it was no less than 1000 nM; in experiment [4] it was less than 50 nM; in experiment [5] it was 50 to 500 nM; in experiment [6], no more than 500 nM.
